How the values were obtained:
GALAP (Galium) = assay: Preemergence herbicidal evaluation; assay type: in vivo, Galium aparine; details: rated 4-5 weeks after treatment
How it was run: (§1)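 Seeds were planted in potting soil in cups, then sprayed preemergence with the test compound in aqueous acetone at about 0.0156 to 0.500 kg per hectare. Cups were kept under greenhouse conditions and visually rated 4–5 weeks after treatment on a 0–9 scale against an untreated control.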

CYPSE (Flatsedge) = assay: Postemergence weed control under flooded paddy conditions; assay type: in vivo, Cyperus serotinus; details: postemergence weeds, 3-4 weeks after treatment
How it was run: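 Containers holding 3–5 cm weeds and rice at 1.5–2.5 leaves are flooded to 1.5–3 cm above soil. Compound in 50/50 v/v aqueous/acetone is then added directly to the water, about 0.0313–0.500 kg/ha. Plants are kept in the greenhouse and rated 0–9 visually at 3–4 weeks.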

ECHCG (Barnyardgrass) = assay: Postemergence herbicidal evaluation; assay type: in vivo, Echinochloa crus-galli; details: postemergence
How it was run: (§2)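 First, seedlings were raised for around two weeks. Next, test material in 50/50 acetone/water containing 0.5% TWEEN 20 was sprayed through a nozzle at 40 psi, equivalent to about 0.0156–0.500 kg/ha. Finally, after 4–5 weeks in the greenhouse, plants were rated 0–9.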

ORYSAT (Rice, Tebonnet) [1] = assay: Preemergence herbicidal evaluation; assay type: in vivo, Oryza sativa, (L.) Tebonnet; details: rated 4-5 weeks after treatment
How it was run: as §1

CYPIR (Rice Flatsedge) = assay: Preemergence weed control under flooded paddy conditions; assay type: in vivo, Cyperus iria; details: rated 3-4 weeks after treatment
How it was run: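 Flooded-pot preemergence screen with silt loam and seeds in the upper 0.5 cm. Dose about 0.0313 to 0.500 kg/ha, delivered into flood water; visual 0-9 score after 3 to 4 weeks.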

[2] = system: TRZAWR (Wheat, Winter, cv Riband); assay: Preemergence herbicidal evaluation; assay type: in vivo, Triticum aestivum; details: rated 4-5 weeks after treatment
How it was run: as §1

ZEAMX (Corn, Field) = assay: Preemergence herbicidal evaluation; assay type: in vivo, Zea mays; details: rated 4-5 weeks after treatment
How it was run: as §1

MOOVA (Monochoria) = assay: Preemergence weed control under flooded paddy conditions; assay type: in vivo, Monochoria vaginalis; details: rated 3-4 weeks after treatment
How it was run: (§3)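 Greenhouse paddy assay. Acetone/water (50/50 v/v) solutions dosed into flood water, equivalent to about 0.0313 to 0.500 kg/ha active ingredient, over seeds planted 0.5 cm deep in silt loam. Score: 0-9 visual, based on stand, vigor, malformation, size and chlorosis, 3 to 4 weeks after treatment.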

[3] = system: GLXMAW (Soybean, Williams); assay: Preemergence herbicidal evaluation; assay type: in vivo, Glycine max, (L.) Merr. cv Williams; details: rated 4-5 weeks after treatment
How it was run: as §1

CASOB (Sicklepod) = assay: Postemergence herbicidal evaluation; assay type: in vivo, Cassia obtusifolia; details: postemergence
How it was run: as §2

[4] = system: CHEAL (Lambsquarters, Common); assay: Postemergence herbicidal evaluation; assay type: in vivo, Chenopodium album; details: postemergence
How it was run: as §2

SETVI (Foxtail, Green) = assay: Preemergence herbicidal evaluation; assay type: in vivo, Setaria viridis; details: rated 4-5 weeks after treatment
How it was run: as §1

[5] = system: SAGPY (Arrowhead (Pygmaea)); assay: Preemergence weed control under flooded paddy conditions; assay type: in vivo, Sagittaria pygmaea; details: rated 3-4 weeks after treatment
How it was run: as §3

ORYSAT (Rice, Tebonnet) [6] = assay: Postemergence herbicidal evaluation; assay type: in vivo, Oryza sativa, (L.) Tebonnet; details: postemergence
How it was run: as §2

CCOC(=O)/C=C1/S/C(=N/c2cc(-n3c(=O)cc(C(F)(F)F)n(C)c3=O)c(F)cc2Cl)N(CC(=O)OCC)C1=O [Compound 14]
GALAP preemergence herbicidal rating (GALAP (Galium); rate 0.0313 kg/ha): 0.0
GALAP preemergence herbicidal rating (GALAP (Galium); rate 0.0625 kg/ha): 0.0
GALAP preemergence herbicidal rating (GALAP (Galium); rate 0.1250 kg/ha): 9.0
GALAP preemergence herbicidal rating (GALAP (Galium); rate 0.2500 kg/ha): 9.0
Herbicidal rating CYPSE (CYPSE (Flatsedge); rate 0.0313 kg/ha): 0.0
Herbicidal rating CYPSE (CYPSE (Flatsedge); rate 0.0625 kg/ha): 0.0
Herbicidal rating CYPSE (CYPSE (Flatsedge); rate 0.1250 kg/ha): 1.5
Herbicidal rating CYPSE (CYPSE (Flatsedge); rate 0.2500 kg/ha): 0.0
ECHCG herbicidal rating (ECHCG (Barnyardgrass); rate 0.0156 kg/ha): 9.0
ECHCG herbicidal rating (ECHCG (Barnyardgrass); rate 0.0313 kg/ha): 9.0
ECHCG herbicidal rating (ECHCG (Barnyardgrass); rate 0.0625 kg/ha): 9.0
ECHCG herbicidal rating (ECHCG (Barnyardgrass); rate 0.1250 kg/ha): 9.0
ORYSAT preemergence herbicidal rating (ORYSAT (Rice, Tebonnet) [1]; rate 0.0313 kg/ha): 0.0
ORYSAT preemergence herbicidal rating (ORYSAT (Rice, Tebonnet) [1]; rate 0.0625 kg/ha): 0.0
ORYSAT preemergence herbicidal rating (ORYSAT (Rice, Tebonnet) [1]; rate 0.1250 kg/ha): 0.5
ORYSAT preemergence herbicidal rating (ORYSAT (Rice, Tebonnet) [1]; rate 0.2500 kg/ha): 1.0
ORYSAT preemergence herbicidal rating (ORYSAT (Rice, Tebonnet) [1]; rate 0.5000 kg/ha): 3.0
Herbicidal rating CYPIR (CYPIR (Rice Flatsedge); 0.0313 kg/ha): 2.0
Herbicidal rating CYPIR (CYPIR (Rice Flatsedge); 0.0625 kg/ha): 2.5
Herbicidal rating CYPIR (CYPIR (Rice Flatsedge); 0.1250 kg/ha): 4.5
Herbicidal rating CYPIR (CYPIR (Rice Flatsedge); 0.2500 kg/ha): 0.0
TRZAWR preemergence herbicidal rating ([2]; rate 0.0313 kg/ha): 0.0
TRZAWR preemergence herbicidal rating ([2]; rate 0.0625 kg/ha): 0.0
TRZAWR preemergence herbicidal rating ([2]; rate 0.1250 kg/ha): 0.0
TRZAWR preemergence herbicidal rating ([2]; rate 0.2500 kg/ha): 0.0
ZEAMX preemergence herbicidal rating (ZEAMX (Corn, Field); rate 0.0313 kg/ha): 0.0
ZEAMX preemergence herbicidal rating (ZEAMX (Corn, Field); rate 0.0625 kg/ha): 0.0
ZEAMX preemergence herbicidal rating (ZEAMX (Corn, Field); rate 0.1250 kg/ha): 1.5
ZEAMX preemergence herbicidal rating (ZEAMX (Corn, Field); rate 0.2500 kg/ha): 2.0
ZEAMX preemergence herbicidal rating (ZEAMX (Corn, Field); rate 0.5000 kg/ha): 3.0
Herbicidal rating MOOVA (MOOVA (Monochoria); 0.0313 kg/ha): 4.5
Herbicidal rating MOOVA (MOOVA (Monochoria); 0.0625 kg/ha): 4.5
Herbicidal rating MOOVA (MOOVA (Monochoria); 0.1250 kg/ha): 4.5
Herbicidal rating MOOVA (MOOVA (Monochoria); 0.2500 kg/ha): 0.0
GLXMAW preemergence herbicidal rating ([3]; rate 0.0313 kg/ha): 0.0
GLXMAW preemergence herbicidal rating ([3]; rate 0.0625 kg/ha): 0.0
GLXMAW preemergence herbicidal rating ([3]; rate 0.1250 kg/ha): 2.0
GLXMAW preemergence herbicidal rating ([3]; rate 0.2500 kg/ha): 3.0
GLXMAW preemergence herbicidal rating ([3]; rate 0.5000 kg/ha): 6.0
CASOB herbicidal rating (CASOB (Sicklepod); rate 0.0156 kg/ha): 0.0
CASOB herbicidal rating (CASOB (Sicklepod); rate 0.0313 kg/ha): 2.0
CASOB herbicidal rating (CASOB (Sicklepod); rate 0.0625 kg/ha): 2.0
CASOB herbicidal rating (CASOB (Sicklepod); rate 0.1250 kg/ha): 9.0
CHEAL herbicidal rating ([4]; rate 0.0156 kg/ha): 9.0
CHEAL herbicidal rating ([4]; rate 0.0313 kg/ha): 9.0
CHEAL herbicidal rating ([4]; rate 0.0625 kg/ha): 9.0
CHEAL herbicidal rating ([4]; rate 0.1250 kg/ha): 9.0
SETVI preemergence herbicidal rating (SETVI (Foxtail, Green); rate 0.0313 kg/ha): 0.5
SETVI preemergence herbicidal rating (SETVI (Foxtail, Green); rate 0.0625 kg/ha): 0.5
SETVI preemergence herbicidal rating (SETVI (Foxtail, Green); rate 0.1250 kg/ha): 6.5
SETVI preemergence herbicidal rating (SETVI (Foxtail, Green); rate 0.2500 kg/ha): 9.0
SETVI preemergence herbicidal rating (SETVI (Foxtail, Green); rate 0.5000 kg/ha): 9.0
Herbicidal rating SAGPY ([5]; 0.0313 kg/ha): 0.0
Herbicidal rating SAGPY ([5]; 0.0625 kg/ha): 0.0
Herbicidal rating SAGPY ([5]; 0.1250 kg/ha): 0.0
Herbicidal rating SAGPY ([5]; 0.2500 kg/ha): 0.0
ORYSAT herbicidal rating (ORYSAT (Rice, Tebonnet) [6]; rate 0.0156 kg/ha): 3.5
ORYSAT herbicidal rating (ORYSAT (Rice, Tebonnet) [6]; rate 0.0313 kg/ha): 5.5
ORYSAT herbicidal rating (ORYSAT (Rice, Tebonnet) [6]; rate 0.0625 kg/ha): 6.0
ORYSAT herbicidal rating (ORYSAT (Rice, Tebonnet) [6]; rate 0.1250 kg/ha): 8.5

From patent US20020137929A1, “1 - (3-heterocyclylphenyl) isothiourea, -isourea, -guanidine and -amidine herbicidal agents” (Intellectual Property Department, BASF Aktiengesellschaft, priority 1998, published 2002)
